21 molecules from patent publication US12297186B2, “Benzylamide derivatives as inhibitors of transforming growth factor-beta receptor I/ALK5” (AGOMAB SPAIN, S.L.U., priority 2019, dated 2025) can be followed below.

In one data set the target is Human TGFβR-1 kinase (Homo sapiens (Human), UniProt P36897). Kind of data set: In vitro enzyme assay: inhibition of TGFβR-1 kinase activity (ADP-Glo). The class given is biochemical. How it is done: In Vitro Enzyme Assay: Inhibition of TGFβR-1Kinase Activity
Human TGFβR-1 kinase, sequence (P36897 34-503): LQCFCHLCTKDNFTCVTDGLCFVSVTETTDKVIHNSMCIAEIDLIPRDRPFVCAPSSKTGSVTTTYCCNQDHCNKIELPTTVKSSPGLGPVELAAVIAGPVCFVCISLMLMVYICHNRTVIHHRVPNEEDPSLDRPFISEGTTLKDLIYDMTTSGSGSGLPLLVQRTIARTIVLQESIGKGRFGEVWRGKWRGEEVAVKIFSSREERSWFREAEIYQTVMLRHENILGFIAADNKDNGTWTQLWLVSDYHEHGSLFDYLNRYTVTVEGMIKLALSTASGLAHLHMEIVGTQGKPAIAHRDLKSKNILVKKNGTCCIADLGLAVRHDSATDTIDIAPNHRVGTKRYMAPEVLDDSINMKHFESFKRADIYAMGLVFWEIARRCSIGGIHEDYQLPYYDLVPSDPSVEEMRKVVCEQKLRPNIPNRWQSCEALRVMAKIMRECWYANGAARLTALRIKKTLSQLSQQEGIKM
Human TGFβl R-1 inhibition experiments were carried out in a white 384-microplate low flange (Corning 3572) with ADP-Glo kinase Assay Kit (Promega V9101) and TGβR-1 Kinase Enzyme System (Promega V4092). […] The reaction mixture was incubated in gentle shaking for 120 min at RT, after incubation of 10 μL of ADP-Glo Reagent was added and incubated in gentle shaking for 40 min at RT. 20 μL of Kinase Detection Reagent was added and plate was incubated in gentle shaking for 30 min at RT. Luminiscence (1000 ms) was measured in Perkin Elmer EnSpire Multimode plate reader.
(In general: ADP-Glo first removes unused ATP, then detects ADP through luciferase.)

In the next data set the target is TGF-beta kinase (ALK-5) (Homo sapiens (Human), UniProt P36897). Kind of data set: Determination of the intracellular TGF-beta kinase activity (ALK-5), p-SMAD3 AlphaLISA in A549 cells. The class given is cell-based. The conditions noted are these: A549 cell line. The procedure: Determination of the Intracellular TGF-beta Kinase Activity (ALK-5)
TGF-beta kinase (ALK-5), sequence (P36897 34-503): as above
The experiments were carried out in A549 cell line. 30000 cells were seeded in 200 μl of culture medium (Sigma D6046) supplemented with L-Glutamine (Sigma G7513), Penicillin/Streptomycin (Invitrogen 11058) and FBS (Sigma F9665) on a 96 wells microplate (Becton Dickinson 353072). After 16 hours medium waschanged to serum free medium.

Data set [1] in a line: Metabolic stability assay, human microsomes. In kind it is in vitro ADME. The procedure:
(§1) Metabolic Stability Assay
(§2) Human and rat recombinant microsomes from Tebu-Xenotech were employed in the assay. They content 0.5 mg/ml of protein. The following quantities were added to each well of a 96-well microplate.
(§3) Plates were incubated at 37° C. and 75 μL samples were taken at 0, 10, 20, 40 and 60 minutes. Samples were transferred to a microplate and 75 μl Acetonitrile were added for inactivating the microsomes, and 30 μl of H2O for improving the chromatographic conditions and kept at 4° C. When all the samples were taken the plate was centrifuged at […] for 30 min at 15° C. Supernatant was taken and injected in the UPLC-MS/MS.
(§4) Stationary phase: Reverse phase Acquity UPLC® BEH C18 1.7 μm (2.1 mm×50 mm) (Waters). Mobile phase: A: 0.1% formic; B:acetonitrile+0.1% formic acid. Flow: 0.6 ml/min. The chromatographic equipment employed was an UPLC QSM Waters Acquity. Compound concentrations were calculated from the UV peak areas. The response was linear in the range between 10 ng/ml and 0.3125 ng/ml. Metabolic stability was calculated from the logarithm of the remaining compound at each of the times evaluated.
(§5) The data will be fitted to the one phase exponential decay equation using GraphPad Prism® software. The half-life (t1/2) generated by the software will be reported. Intrinsic clearance will be calculated using the formula where, k=decay rate constant (min^−1).

Data set [2] is described as follows: Metabolic stability assay, rat microsomes. The class given is in vitro ADME. How it is done:
as §1, §2, §3, §4, §5

[3] abbreviates: TGFβR-1 kinase, 50 μM ATP, read-out: IC50 range.
Where [4] appears, read: TGF-β2 activated, p-SMAD3, read-out: IC50 range.

Each structure is given as a SMILES string. Counter-ions that a name gives are not always drawn. Like-named read-outs stand apart in the source and are kept apart here.

Turning to `Cc1cccc(-c2nn(CC(=O)O)cc2-c2ccnc3ccccc23)n1` [Compound A, 2-(3-(6-methylpyridin-2-yl)-4-(quinolin-4-yl)-1H-pyrazol-1-yl)acetic acid], the IC50 (in general, the midpoint of a concentration-inhibition curve) on Human TGFβR-1 kinase (enzyme assay, read-out: IC50 against TGFβR-1) was over 800 nM; on TGF-beta kinase (ALK-5) (read-out: IC50 intracellular TGF-beta kinase activity (ALK-5)), over 5000 nM.
Consider `O=C(Cn1cc(-c2ccnc3ccccc23)c(-c2ccccn2)n1)NCc1ccccc1` [Example 1, N-benzyl-2-(3-(pyridin-2-yl)-4-(quinolin-4-yl)-1H-pyrazol-1-yl)acetamide], for which the IC50 at Human TGFβR-1 kinase (setting [3]) was under 100 nM; at TGF-beta kinase (ALK-5) (setting [4]) it was 100 to 500 nM.
For the molecule `O=C(Cn1cc(-c2ccnc3ccccc23)c(-c2ccccn2)n1)NCc1ccc(F)cc1` [Example 2, N-(4-fluorobenzyl)-2-(3-(pyridin-2-yl)-4-(quinolin-4-yl)-1H-pyrazol-1-yl)acetamide], on Human TGFβR-1 kinase (setting [3]), the IC50 was in the range of 100 to 800 nM.
As to `O=C(Cn1cc(-c2ccnc3ccccc23)c(-c2ccccn2)n1)NCc1ccc(Cl)cc1` [Example 3, N-(4-chlorobenzyl)-2-(3-(pyridin-2-yl)-4-(quinolin-4-yl)-1H-pyrazol-1-yl)acetamide], the concentration for half-maximal inhibition (IC50) on Human TGFβR-1 kinase (setting [3]) was in the range of 100 to 800 nM.
For `O=C(Cn1cc(-c2ccnc3ccccc23)c(-c2ccccn2)n1)NCc1ccc(Br)cc1` [Example 4, N-(4-bromobenzyl)-2-(3-(pyridin-2-yl)-4-(quinolin-4-yl)-1H-pyrazol-1-yl)acetamide], the 50% inhibitory concentration (IC50) on Human TGFβR-1 kinase (setting [3]) is 100 to 800 nM.
In the case of `Cc1ccc(CNC(=O)Cn2cc(-c3ccnc4ccccc34)c(-c3ccccn3)n2)cc1` [Example 7, N-(4-methylbenzyl)-2-(3-(pyridin-2-yl)-4-(quinolin-4-yl)-1H-pyrazol-1-yl)acetamide], at Human TGFβR-1 kinase (setting [3]), the half-maximal inhibitory concentration (IC50) was 100 to 800 nM.
On to `Cc1cccc(CNC(=O)Cn2cc(-c3ccnc4ccccc34)c(-c3ccccn3)n2)c1` [Example 10, N-(3-methylbenzyl)-2-(3-(pyridin-2-yl)-4-(quinolin-4-yl)-1H-pyrazol-1-yl)acetamide], for which, on Human TGFβR-1 kinase (setting [3]), the IC50 was 100 to 800 nM.
For the molecule `O=C(Cn1cc(-c2ccnc3ccccc23)c(-c2ccccn2)n1)NCc1cccc(F)c1` [Example 11, N-(3-fluorobenzyl)-2-(3-(pyridin-2-yl)-4-(quinolin-4-yl)-1H-pyrazol-1-yl)acetamide], the half-inhibitory concentration (IC50) at Human TGFβR-1 kinase (setting [3]) was 100 to 800 nM.
As for `O=C(Cn1cc(-c2ccnc3ccccc23)c(-c2ccccn2)n1)NCc1cccc(Cl)c1` [Example 12, N-(3-chlorobenzyl)-2-(3-(pyridin-2-yl)-4-(quinolin-4-yl)-1H-pyrazol-1-yl)acetamide], at Human TGFβR-1 kinase (setting [3]), the IC50 is 100 to 800 nM.
As for `N#Cc1cccc(CNC(=O)Cn2cc(-c3ccnc4ccccc34)c(-c3ccccn3)n2)c1` [Example 13, N-(3-cyanobenzyl)-2-(3-(pyridin-2-yl)-4-(quinolin-4-yl)-1H-pyrazol-1-yl)acetamide], on Human TGFβR-1 kinase (setting [3]), the IC50 lay in the range of 100 to 800 nM.
The same measure, in the same setting: for `Cc1ccccc1CNC(=O)Cn1cc(-c2ccnc3ccccc23)c(-c2ccccn2)n1` [Example 14, N-(2-methylbenzyl)-2-(3-(pyridin-2-yl)-4-(quinolin-4-yl)-1H-pyrazol-1-yl)acetamide] the value was 100 to 800 nM; for `O=C(Cn1cc(-c2ccnc3ccccc23)c(-c2ccccn2)n1)NCc1ccccc1F` [Example 16, N-(2-fluorobenzyl)-2-(3-(pyridin-2-yl)-4-(quinolin-4-yl)-1H-pyrazol-1-yl)acetamide], 100 to 800 nM.
For `Cc1cccc(-c2nn(CC(=O)NCc3ccccc3F)cc2-c2ccnc3ccccc23)n1` [Example 17, N-(2-fluorobenzyl)-2-(3-(6-methylpyridin-2-yl)-4-(quinolin-4-yl)-1H-pyrazol-1-yl)acetamide], the IC50 at Human TGFβR-1 kinase (setting [3]) lay within 100 to 800 nM.
Turning to `CCc1cccc(-c2nn(CC(=O)NCc3ccccc3)cc2-c2ccnc3ccccc23)n1` [Example 18, N-benzyl-2-(3-(6-ethylpyridin-2-yl)-4-(quinolin-4-yl)-1H-pyrazol-1-yl)acetamide], the IC50 at Human TGFβR-1 kinase (setting [3]) was under 100 nM.
For the molecule `CCc1cccc(-c2nn(CC(=O)NCc3ccccc3C)cc2-c2ccnc3ccccc23)n1` [Example 19, 2-(3-(6-ethylpyridin-2-yl)-4-(quinolin-4-yl)-1H-pyrazol-1-yl)-N-(2-methylbenzyl)acetamide], the half-maximal inhibitory concentration (IC50) at Human TGFβR-1 kinase (setting [3]) is under 100 nM; on TGF-beta kinase (ALK-5) (setting [4]), 100 to 500 nM.
Regarding `O=C(Cn1cc(-c2ccnc3ccccc23)c(-c2ccccn2)n1)NCc1ccccc1Cl` [Example 21, N-(2-chlorobenzyl)-2-(3-(pyridin-2-yl)-4-(quinolin-4-yl)-1H-pyrazol-1-yl)acetamide], at Human TGFβR-1 kinase (setting [3]), the IC50 was in the range of 100 to 800 nM.
For the molecule `O=C(Cn1cc(-c2ccnc3ccccc23)c(-c2ccccn2)n1)NCc1c(F)cccc1F` [Example 23, N-(2,6-difluorobenzyl)-2-(3-(pyridin-2-yl)-4-(quinolin-4-yl)-1H-pyrazol-1-yl)acetamide], the concentration for half-maximal inhibition (IC50) at Human TGFβR-1 kinase (setting [3]) is 100 to 800 nM.
For `Cc1cccc(C)c1CNC(=O)Cn1cc(-c2ccnc3ccccc23)c(-c2ccccn2)n1` [Example 25, N-(2,6-dimethylbenzyl)-2-(3-(pyridin-2-yl)-4-(quinolin-4-yl)-1H-pyrazol-1-yl)acetamide], at Human TGFβR-1 kinase (setting [3]), the IC50 is under 100 nM.
For the molecule `CCc1ccccc1CNC(=O)Cn1cc(-c2ccnc3ccccc23)c(-c2cccc(C)n2)n1` [Example 27, N-(2-ethylbenzyl)-2-(3-(6-methylpyridin-2-yl)-4-(quinolin-4-yl)-1H-pyrazol-1-yl)acetamide], the “% remanent (sampling time 60 min)” value in data set [1] (60 min) amounted to 0.53%; in data set [2] (60 min), 0.31%. For the same molecule, the intrinsic clearance (microsomal CLint) (as a rule, the capacity of the preparation to metabolise the compound, expressed as a volume cleared per time) in data set [1] (human recombinant microsomes (Tebu-Xenotech)) was found to be 505 µL/min/mg; in data set [2] (rat recombinant microsomes (Tebu-Xenotech), pH 7.4), 600 µL/min/mg. In addition, the half-inhibitory concentration (IC50) at Human TGFβR-1 kinase (setting [3]) and on TGF-beta kinase (ALK-5) (setting [4]) was under 100 nM throughout.
Take `Cc1cccc(-c2nn(CC(=O)NCc3c(Cl)cccc3Cl)cc2-c2ccnc3ccccc23)n1` [Example 28, N-(2,6-dichlorobenzyI)-2-(3-(6-methylpyridin-2-yl)-4-(quinolin-4-yl)-1H-pyrazol-1-yl)acetamide]: the IC50 on Human TGFβR-1 kinase (setting [3]) is under 100 nM; at TGF-beta kinase (ALK-5) (setting [4]) it was 100 to 500 nM.
With `O=C(Cn1cc(-c2ccnc3ccccc23)c(-c2ccccn2)n1)NCc1ccc(C(=O)O)cc1` [Example 29, 4-((2-(3-(pyridin-2-yl)-4-(quinolin-4-yl)-1H-pyrazol-1-yl)acetamido)methyl)benzoic acid hydrochloride], the concentration for half-maximal inhibition (IC50) at Human TGFβR-1 kinase (setting [3]) was 100 to 800 nM.
